Molecular target: T1, pmCiC (plasma membrane citrate transporter) (Homo sapiens, UniProt P53007)
T1 construct: gene SLC25A1; His-tagged pmCiC expressed in Sf9 cells, solubilized in dodecylmaltoside and purified by Ni-NTA
Assay: Trp fluorescence quenching titration of purified protein
Type: binding

T1 sequence (P53007 14-311): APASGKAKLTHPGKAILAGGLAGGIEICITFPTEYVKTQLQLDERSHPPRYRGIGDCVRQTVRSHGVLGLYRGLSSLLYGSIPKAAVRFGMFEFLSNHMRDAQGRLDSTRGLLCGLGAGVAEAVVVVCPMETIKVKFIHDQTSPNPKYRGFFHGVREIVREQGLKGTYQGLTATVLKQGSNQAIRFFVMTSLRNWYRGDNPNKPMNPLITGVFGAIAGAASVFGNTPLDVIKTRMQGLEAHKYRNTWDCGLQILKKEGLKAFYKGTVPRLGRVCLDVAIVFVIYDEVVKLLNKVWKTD

Q: How did the Kd turn out when `O=C(O)CC(O)(CC(=O)O)C(=O)O` [citrate] was run?
A: 16 mM

Reference: article PMC7994318, “Cancer-associated cells release citrate to support tumour metastatic progression” (Life Science Alliance, 2021)
